Measured values reported in BindingDB's records for doi:10.1021/jm00163a035 (Sri International, 1990).

Molecular target: T1, Dihydrofolate reductase (Homo sapiens, UniProt P00374)
T1 sequence (P00374 whole entry): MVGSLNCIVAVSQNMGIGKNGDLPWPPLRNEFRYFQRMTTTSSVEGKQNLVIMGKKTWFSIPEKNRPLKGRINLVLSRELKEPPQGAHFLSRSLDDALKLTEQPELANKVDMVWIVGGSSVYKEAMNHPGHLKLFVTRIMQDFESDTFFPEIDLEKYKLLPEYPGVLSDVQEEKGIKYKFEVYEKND
Experiment: ChEBML_54117
Description: Inhibitory activity towards dihydrofolate reductase derived from human manca leukemia cells

Work on `CCC(Cc1ccc(C(=O)NC(CCC(=O)O)C(=O)O)cc1)c1cnc2nc(N)nc(N)c2n1` (stereo unspecified) yielded an IC50 of 70 nM.
